Measured values reported in US12338256B2, “Aza-tetracyclic oxazepine compounds and uses thereof” (Genentech, Inc., priority 2022, dated 2025).
Like-named read-outs stand apart in the source and are kept apart here.

Key:
[1] = system: HPAC (homozygous mutant KRAS G12D human pancreatic cell line); assay: KRAS 3D-Cell Proliferation Assay, HPAC (Example 503); assay type: cell-based; conditions: HPAC 3D culture, 7 days, CellTiter-Glo 3D, read-out: Prolif HPAC 3D ATP IC50
Experimental: (§1) Example 503: KRAS 3D-Cell Proliferation Assays. Cellular potencies of compounds are assessed by evaluating inhibition of proliferation in 3D cultures of homozygous mutant KRAS G12D human pancreatic cell lines (AsPC-1 and HPAC) as compared to a KRAS wild type human lung adenocarcinoma cell line (PC-9 and/or H1975). Cells are seeded into 384-well black round-bottom, ultra-low attachment assay plates in 50 uL cell growth medium (RPMI-1640 with 10% fetal bovine serum and 2 mM L-glutamine). After overnight incubation at 37° C. and 5% CO2, compounds solubilized in DMSO are added as dilution series to the wells in a total volume of 150 nL (0.3% DMSO final). The cells are incubated for 7 days at 37° C. and 5% CO2. Cell proliferation is quantitated by addition of 40 uL/well of CellTiter-GloÒ 3D (Promega), and the well contents are mixed 20× at high speed using liquid handling automation workstation (Bravo with 384-well head) and centrifuged at 1500 rpm for 2 minutes to eliminate bubbles. This reagent in combination with mechanical disruption releases the cellular ATP to promote activity in a luciferase-based enzyme/substrate chemiluminescent detection system. After a 30-minute incubation under ambient conditions with shaking and an additional 10 minutes without shaking, the luminescence is read on a plate reader (e.g., EnVision [PerkinElmer]). The results are normalized to percent inhibition based on the following control samples: DMSO (0% inhibition) and 1 μM staurosporine (100% inhibition). The normalized luminescence results are plotted against compound concentration, and the data are fit to a 4-parameter Hill equation to determine the IC50 values.

[2] = system: H1975 (KRAS wild type human lung adenocarcinoma cell line); assay: KRAS 3D-Cell Proliferation Assay, H1975 (Example 503); assay type: cell-based; conditions: H1975 3D culture, 7 days, CellTiter-Glo 3D, read-out: Prolif H1975 3D ATP IC50
Experimental: as §1

Row | SMILES | IC50 ([1]; Homo sapiens, HPAC, 168 h) | IC50 ([2]; Homo sapiens, NCI-H1975, 168 h) | IC50 [1] | IC50 [2]
1 | Cc1c(F)c(N)cc(-c2nc3c4c(nc(OC[C@]56CCCN5C[C@H](F)[C@@H]6F)nc4c2F)N2C[C@H]4CC[C@H](N4)[C@H]2[C@H](C)O3)c1C(F)(F)F (single isomer, unassigned) [143 (isomer 1)] | 4.72 nM | 972 nM |  | 
2 | Cc1c(F)c(N)cc(-c2nc3c4c(nc(OC[C@@]5(CC(F)F)CCCN5C)nc4c2F)N2C[C@H]4CC[C@H](N4)[C@H]2[C@H](C)O3)c1C(F)(F)F (single isomer, unassigned) [150 (isomer 1)] | 13.7 nM | 3770 nM |  | 
3 | Cc1c(F)c(N)cc(-c2nc3c4c(nc(OCC5(CC(F)F)CCCN5C)nc4c2F)N2CC4CCC(N4)C2C(C)O3)c1C(F)(F)F (single isomer, unassigned) [150 (isomer 2)] | 23.9 nM | 2850 nM |  | 
4 | Cc1c(F)c(N)cc(-c2nc3c4c(nc(OC[C@@H]5CC[C@H]6C[C@@H](F)CN56)nc4c2F)N2C[C@H]4CC[C@H](N4)[C@H]2[C@H](C)O3)c1C(F)(F)F (single isomer, unassigned) [152 (isomer 1)] | 17.4 nM | 787 nM |  | 
5 | Cc1c(F)c(N)cc(-c2nc3c4c(nc(OCC5CCC6CC(F)CN56)nc4c2F)N2CC4CCC(N4)C2C(C)O3)c1C(F)(F)F (single isomer, unassigned) [152 (isomer 2)] | 299 nM | 6330 nM |  | 
6 | Cc1c(F)c(N)cc(-c2nc3c4c(nc(OCC5CC(F)C6CCCN56)nc4c2F)N2C[C@H]4CC[C@H](N4)[C@H]2[C@H](C)O3)c1C(F)(F)F (single isomer, unassigned) [160 (diast. 1)] | 8.07 nM | 1000 nM |  | 
7 | Cc1c(F)c(N)cc(-c2nc3c4c(nc(OCC56CCCN5CC(F)C6)nc4c2F)N2CCNCC2C(C)O3)c1C(F)(F)F (single isomer, unassigned) [235 (isomer 1)] | 2420 nM | 4340 nM |  | 
8 | Cc1c(F)c(N)cc(-c2nc3c4c(nc(OC[C@@]56CCCN5C[C@H](F)C6)nc4c2F)N2CCNC[C@H]2C(C)O3)c1C(F)(F)F (single isomer, unassigned) [235 (isomer 2)] | 136 nM | 262 nM |  | 
9 | Cc1c(F)c(N)cc(-c2nc3c4c(nc(OC[C@@]56CCCN5C[C@H](F)C6)nc4c2F)N2C[C@H]4CC[C@H](N4)C2C(C(F)F)O3)c1C(F)(F)F (single isomer, unassigned) [238 (isomer 1)] | 2000 nM | 13500 nM |  | 
10 | Cc1nc(N)cc(-c2nc3c4c(nc(OC[C@@]56CCN5CC(F)(F)C6)nc4c2F)N2C[C@H]4CC[C@H](N4)[C@H]2[C@H](C(F)(F)F)O3)c1C(F)(F)F (single isomer, unassigned) [252 (isomer 1)] | 20.4 nM | 7710 nM |  | 
11 | Cc1nc(N)cc(-c2nc3c4c(nc(OCC56CCN5CC(F)(F)C6)nc4c2F)N2C[C@H]4CC[C@H](N4)[C@H]2[C@H](C(F)(F)F)O3)c1C(F)(F)F (single isomer, unassigned) [252 (isomer 2)] | 119 nM | 20000 nM |  | 
12 | Cc1nc(N)cc(-c2nc3c4c(nc(OCC56CCCN5CC(F)C6)nc4c2F)N2CC4CCC(N4)[C@H]2[C@@H](C(F)(F)F)O3)c1C(F)(F)F (stereo in doubt) [Compound 243, 4-((6R,9S)-1-fluoro-12-(((2S,7aR)-2-fluorotetrahydro-1H-pyrrolizin-7a(5H)-yl)methoxy)-5-(trifluoromethyl)-5a,6,7,8,9,10-hexahydro-5H-4-oxa-3,10a,11,13,14-pentaaza-6,9-methanonaphtho[1,8-ab]heptalene-2-yl)-6-methyl-5-(trifluoromethyl)pyridin-2-amine] | 2000 nM | 20000 nM |  | 
13 | Cc1c(F)c(N)cc(-c2nc3c4c(nc(OC[C@]5(CN6CCOCC6)CC5(F)F)nc4c2F)N2C[C@H]4CC[C@H](N4)[C@H]2[C@H](C)O3)c1C(F)(F)F [167 a] |  |  | 1.58 nM | 1140 nM
14 | Cc1c(F)c(N)cc(-c2nc3c4c(nc(OC[C@@]56CCCN5C[C@H](F)C6)nc4c2F)N2C[C@H]4CC[C@H](N4)[C@H]2[C@H](C)O3)c1C=O [Compound 59, 4-Amino-3-fluoro-6-((5S,5aS,6S,9R)-1-fluoro-12-(((2R,7aS)-2-fluorotetrahydro-1H-pyrrolizin-7a(5H)-yl)methoxy)-5-methyl-5a,6,7,8,9,10-hexahydro-5H-4-oxa-3,10a,11,13,14-pentaaza-6,9-methanonaphtho[1,8-ab]heptalen-2-yl)-2-methylbenzaldehyde] | 117 nM | 10500 nM |  | 
15 | Cc1cc(N)cc(-c2nc3c4c(nc(OC[C@@H]5CC[C@H]6COCCN65)nc4c2F)N2C[C@H]4CC[C@H](N4)[C@H]2[C@H](C)O3)c1C(F)(F)F [Compound 67, 3-((5S,5aS,6S,9R)-1-Fuoro-1-(((6S,8aS)-hexahydro-1H-pyrrolo[2,1-c][1,4]oxazin-6-yl)methoxy)-5-methyl-5a,6,7,8,9,10-hexahydro-5H-4-oxa-3,10a,11,13,14-pentaaza-6,9-methanonaphtho[1,8-ab]heptalen-2-yl)-5-methyl-4-(trifluoromethyl)aniline] | 2.79 nM | 639 nM |  | 
16 | Cc1cc(N)cc(-c2nc3c4c(nc(OC[C@@]56CCCN5CC5(CC5(F)F)C6)nc4c2F)N2C[C@H]4CC[C@H](N4)[C@H]2[C@H](C)O3)c1C(F)(F)F (stereo partly drawn) [Compound 68, 3-((5S,5aS,6S,9R)-12-(((7a′S)-2,2-Difluorodihydro-1′H,3′H-spiro[cyclopropane-1,2′-pyrrolizin]-7a′(5′H)-yl)methoxy)-1-fluoro-5-methyl-5a,6,7,8,9,10-hexahydro-5H-4-oxa-3,10a,11,13,14-pentaaza[6,9]methanonaphtho[1,8-ab]heptalen-2-yl)-5-methyl-4-(trifluoromethyl)aniline] | 0.205 nM | 146 nM |  | 
17 | C[C@@H]1Oc2nc(-c3cc(N)ccc3C(F)(F)F)c(F)c3nc(OC[C@@]45CCCN4C[C@H](F)C5)nc(c23)N2C[C@H]3CC[C@H](N3)[C@@H]12 [Compound 72, 3-((5S,5aS,6S,9R)-1-Fluoro-12-(((2R,7aS)-2-fluorotetrahydro-1H-pyrrolizin-7a(5H)-yl)methoxy)-5-methyl-5a,6,7,8,9,10-hexahydro-5H-4-oxa-3,10a,11,13,14-pentaaza-6,9-methanonaphtho[1,8-ab]heptalen-2-yl)-4-(trifluoromethyl)aniline] | 3.16 nM | 1060 nM |  | 
18 | C[C@@H]1Oc2nc(-c3cc(N)c(F)cc3C(C)(F)F)c(F)c3nc(OC[C@@]45CCCN4C[C@H](F)C5)nc(c23)N2C[C@H]3CC[C@H](N3)[C@@H]12 [Compound 73, 4-(1,1-difluoroethyl)-2-fluoro-5-((5S,5aS,6S,9R)-1-fluoro-12-(((2R,7aS)-2-fluorotetrahydro-1H-pyrrolizin-7a(5H)-yl)methoxy)-5-methyl-5a,6,7,8,9,10-hexahydro-5H-4-oxa-3,10a,11,13,14-pentaaza-6,9-methanonaphtho[1,8-ab]heptalen-2-yl)aniline] | 16.3 nM | 4090 nM |  | 
19 | Cc1cc(N)cc(-c2nc3c4c(nc(OC[C@@]56CCCN5C[C@H](F)C6)nc4c2F)N2C[C@H]4CC[C@H](N4)[C@H]2[C@H](C)O3)c1Cl [Compound 74, 4-Chloro-3-((5S,5aS,6S,9R)-1-fluoro-12-(((2R,7aS)-2-fluorotetrahydro-1H-pyrrolizin-7a(5H)-yl)methoxy)-5-methyl-5a,6,7,8,9,10-hexahydro-5H-4-oxa-3,10a,11,13,14-pentaaza-6,9-methanonaphtho[1,8-ab]heptalen-2-yl)-5-methylaniline] | 5.7 nM | 2040 nM |  | 
20 | C[C@@H]1Oc2nc(-c3cc(O)cc4ccc(F)c(F)c34)c(F)c3nc(OC[C@@]45CCCN4C[C@H](F)C5)nc(c23)N2C[C@H]3CC[C@H](N3)[C@@H]12 [Compound 82, 5,6-Difluoro-4-((5S,5aS,6S,9R)-1-fluoro-12-(((2R,7aS)-2-fluorotetrahydro-1H-pyrrolizin-7a(5H)-yl)methoxy)-5-methyl-5a,6,7,8,9,10-hexahydro-5H-4-oxa-3,10a,11,13,14-pentaaza-6,9-methanonaphtho[1,8-ab]heptalen-2-yl)naphthalen-2-ol] | 20000 nM | 20000 nM |  | 
21 | C[C@@H]1Oc2nc(-c3cc(N)cc4c3CCC4)c(F)c3nc(OC[C@@]45CCCN4C[C@H](F)C5)nc(c23)N2C[C@H]3CC[C@H](N3)[C@@H]12 [Compound 83, 7-((5S,5aS,6S,9R)-1-Fluoro-12-(((2R,7aS)-2-fluorotetrahydro-1H-pyrrolizin-7a(5H)-yl)methoxy)-5-methyl-5a,6,7,8,9,10-hexahydro-5H-4-oxa-3,10a,11,13,14-pentaaza-6,9-methanonaphtho[1,8-ab]heptalen-2-yl)-2,3-dihydro-1H-inden-5-amine] | 23.7 nM | 2230 nM |  | 
